In ChEMBL document CHEMBL4354856, “Discovery of 4,6-O-Thenylidene-β-d-glucopyranoside-(2″-acetamido, 3″-acetyl-di-S-5-fluorobenzothizole/5-fluorobenzoxazole)-4'-demethylepipodophyllotoxin as Potential Less Toxic Antitumor Candidate Drugs by Reducing DNA Damage and Less Inhibition of PI3K” (J Med Chem, 2020):
Activity calls are given as the source filed them. No cut-off for these calls is given here.

How the values were obtained:
[1] = Acute toxicity in ip dosed C57BL6 mouse assessed as mouse survival administered as single dose for 3 days and monitored for 20 days by Bliss method; type: organism-based; conditions: in vivo
[2] = tested on: L02; test: Genotoxicity in human HL7702 cells assessed as induction of DNA damage by measuring tail DNA at 50 uM after 24 hrs by alkaline comet assay (reference value: 3 +/- 1.1 %); type: toxicity, cell-based; conditions: l02, 24 h
[3] = tested on: MRC5; test: Cytotoxicity against human MRC5 cells assessed as inhibition of cell proliferation measured after 48 hrs by MTT assay; type: cell-based; conditions: MRC5, 48 h
[4] = tested on: HepG2; test: Cell cycle arrest in human HepG2 cells assessed as accumulation at G2/M phase at 15 uM after 36 hrs by propidium staining based flow cytometry analysis relative to control; type: functional
[5] = molecular target: DNA topoisomerase 2-alpha (Homo sapiens) (UniProt P11388); test: Inhibition of human topoisomerase-2alpha mediated decatenation using kinetoplast DNA as substrate after 30 mins in presence of ATP by ethidium bromide staining-based UV imaging analysis
Sequence of DNA topoisomerase 2-alpha (Homo sapiens) (P11388 whole entry): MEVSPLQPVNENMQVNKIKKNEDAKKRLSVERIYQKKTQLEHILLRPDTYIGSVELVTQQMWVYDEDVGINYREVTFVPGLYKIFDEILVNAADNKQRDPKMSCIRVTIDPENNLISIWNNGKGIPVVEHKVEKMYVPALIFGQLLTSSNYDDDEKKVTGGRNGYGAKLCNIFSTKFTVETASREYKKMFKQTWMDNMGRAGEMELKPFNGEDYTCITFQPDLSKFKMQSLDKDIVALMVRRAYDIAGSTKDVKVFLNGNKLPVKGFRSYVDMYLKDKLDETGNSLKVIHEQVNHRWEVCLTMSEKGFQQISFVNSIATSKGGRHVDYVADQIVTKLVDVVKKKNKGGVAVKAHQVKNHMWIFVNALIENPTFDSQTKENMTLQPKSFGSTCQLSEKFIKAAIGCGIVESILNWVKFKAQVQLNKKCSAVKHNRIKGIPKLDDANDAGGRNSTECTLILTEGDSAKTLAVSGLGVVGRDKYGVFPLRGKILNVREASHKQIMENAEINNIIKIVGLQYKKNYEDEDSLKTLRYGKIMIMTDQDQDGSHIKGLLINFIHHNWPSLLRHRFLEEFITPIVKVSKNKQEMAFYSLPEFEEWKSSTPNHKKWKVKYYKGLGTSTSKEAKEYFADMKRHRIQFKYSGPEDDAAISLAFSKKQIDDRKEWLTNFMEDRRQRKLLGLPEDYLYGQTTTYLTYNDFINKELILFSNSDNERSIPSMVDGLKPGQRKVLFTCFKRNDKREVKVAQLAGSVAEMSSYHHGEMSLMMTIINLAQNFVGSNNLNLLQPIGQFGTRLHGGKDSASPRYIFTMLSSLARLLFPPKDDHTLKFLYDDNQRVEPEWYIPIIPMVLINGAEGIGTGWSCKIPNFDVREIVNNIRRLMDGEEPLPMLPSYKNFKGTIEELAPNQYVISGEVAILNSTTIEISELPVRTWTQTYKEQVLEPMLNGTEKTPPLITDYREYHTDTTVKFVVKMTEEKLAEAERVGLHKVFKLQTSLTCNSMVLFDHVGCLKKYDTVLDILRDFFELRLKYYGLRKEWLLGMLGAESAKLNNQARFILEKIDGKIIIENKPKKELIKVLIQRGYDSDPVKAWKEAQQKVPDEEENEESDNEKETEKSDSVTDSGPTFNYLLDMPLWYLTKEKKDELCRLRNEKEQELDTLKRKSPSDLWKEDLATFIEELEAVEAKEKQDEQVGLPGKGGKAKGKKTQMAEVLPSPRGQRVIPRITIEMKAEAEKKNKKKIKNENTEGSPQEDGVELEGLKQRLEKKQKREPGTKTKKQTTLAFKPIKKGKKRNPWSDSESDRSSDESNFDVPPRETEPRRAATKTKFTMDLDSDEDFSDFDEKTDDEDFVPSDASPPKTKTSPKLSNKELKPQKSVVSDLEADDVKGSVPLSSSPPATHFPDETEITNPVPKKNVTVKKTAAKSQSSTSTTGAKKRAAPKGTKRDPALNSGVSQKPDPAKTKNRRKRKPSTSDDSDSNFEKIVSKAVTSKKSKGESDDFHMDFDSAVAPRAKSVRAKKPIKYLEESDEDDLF

[6] = tested on: HepG2; test: Induction of apoptosis in human HepG2 cells assessed as apoptotic cells at 5 to 15 uM measured after 36 hrs by Annexin-V/propidium iodide staining based flow cytometry analysis relative to control; type: functional
[7] = tested on: HepG2; test: Antitumor activity against human HepG2 xenografted in BALB/c nude mouse assessed as tumor volume at 30 mg/kg, ip administered for 20 days and measured after 20 days by electronic caliper method (reference value: 960.20 +/- 32.10 mm3); type: functional
[8] = tested on: L02; test: Cytotoxicity against human HL7702 cells assessed as inhibition of cell proliferation measured after 48 hrs by MTT assay relative to teniposide; type: cell-based; conditions: l02, 48 h
[9] = tested on: L02; test: Induction of DNA damage in human HL7702 cells assessed as effect on gamma-H2AX phosphorylation at 20 uM after 24 hrs by Alexa Fluor 488 staining based fluorescence assay; type: cell-based; conditions: l02, 24 h
[10] = tested on: HepG2; test: Antitumor activity against human HepG2 xenografted in ip dosed BALB/c nude mouse administered for 20 days and measured after 20 days by electronic caliper method; type: functional; conditions: 480 h
[11] = tested on: HMEC; test: Cytotoxicity against human HMEC cells assessed as inhibition of cell proliferation measured after 48 hrs by MTT assay; type: cell-based
[12] = molecular target: DNA topoisomerase 2-alpha (Homo sapiens) (UniProt P11388); test: Inhibition of human topoisomerase-2alpha mediated decatenation at 25 uM using kinetoplast DNA as substrate after 30 mins in presence of ATP by ethidium bromide staining-based UV imaging analysis
[13] = tested on: HepG2; test: Antitumor activity against human HepG2 xenografted in BALB/c nude mouse assessed as tumor growth inhibition at 30 mg/kg, ip administered for 20 days and measured after 20 days by electronic caliper method relative to control; type: functional; conditions: 480 h, read-out: TGI
[14] = species on record: Homo sapiens; test: Induction of PI3K/AKT phosphorylation in human HL7702 cells at 25 uM after 30 hrs by Western blot analysis; type: cell-based
[15] = tested on: HepG2; test: Induction of DNA damage in human HepG2 cells assessed as increase in H2AX phosphorylation at 20 uM after 24 hrs by Alexa Fluor 488 staining based fluorescence assay; type: functional, cell-based
[16] = tested on: MCF7; test: Anticancer activity against human MCF7 cells assessed as inhibition of cell proliferation measured after 48 hrs by MTT assay; type: functional, cell-based; conditions: MCF7, 48 h
[17] = tested on: L02; test: Cytotoxicity against human HL7702 cells assessed as inhibition of cell proliferation measured after 48 hrs by MTT assay; type: cell-based; conditions: L02, 48 h
[18] = molecular target: T1, DNA topoisomerase II (Homo sapiens, UniProt P11388+Q02880); test: Poison activity at topoisomerase-2 in human HepG2 cell lysate assessed as topoisomerase-2 band depletion after 3 hrs by Western blot analysis; type: subcellular
[19] = tested on: HepG2; test: Anticancer activity against human HepG2 cells assessed as inhibition of cell proliferation measured after 48 hrs by MTT assay; type: functional, cell-based; conditions: HepG2, 48 h
[20] = tested on: L02; test: Induction of apoptosis in human HL7702 cells assessed as increase in BAX level at 25 uM after 30 hrs by Western blot analysis; type: cell-based; conditions: l02, 30 h
[21] = tested on: L02; test: Induction of apoptosis in human HL7702 cells assessed as increase in PARP cleavage at 25 uM after 30 hrs by Western blot analysis; type: cell-based; conditions: l02, 30 h
[22] = Acute toxicity in C57BL6 mouse assessed as effect on heart at 30 mg/kg, ip administered for 20 days and measured after 20 days by hematoxylin and eosin staining based assay; type: organism-based; conditions: in vivo, 480 h
[23] = tested on: HepG2; test: Cell cycle arrest in human HepG2 cells assessed as accumulation at G2/M phase at 5 uM after 24 hrs by propidium staining based flow cytometry analysis; type: functional
[24] = tested on: HeLa; test: Anticancer activity against human HeLa cells assessed as inhibition of cell proliferation measured after 48 hrs by MTT assay; type: functional, cell-based
[25] = Cytotoxicity against human H8 cells assessed as inhibition of cell proliferation measured after 48 hrs by MTT assay; type: cell-based
[26] = tested on: MRC5; test: Cytotoxicity against human MRC5 cells assessed as inhibition of cell proliferation measured after 48 hrs by MTT assay relative to teniposide; type: cell-based; conditions: mrc5, 48 h
[27] = Therapeutic index, ratio of LD50 for acute toxicity in ip dosed C57BL6 mouse assessed as mouse survival administered as single dose for 3 days and monitored for 20 days by Bliss method to ED50 for antitumor activity against human HepG2 xenografted in ip dosed BALB/c nude mouse administered for 20 days and measured after 20 days by electronic caliper method; type: organism-based; conditions: in vivo, read-out: TI
[28] = Acute toxicity in C57BL6 mouse assessed as effect on lung at 30 mg/kg, ip administered for 20 days and measured after 20 days by hematoxylin and eosin staining based assay; type: organism-based; conditions: in vivo, 480 h
[29] = Acute toxicity in C57BL6 mouse assessed as effect on liver at 30 mg/kg, ip administered for 20 days and measured after 20 days by hematoxylin and eosin staining based assay; type: organism-based; conditions: in vivo, 480 h
[30] = tested on: L02; test: Induction of apoptosis in human HL7702 cells assessed as apoptotic cells at 50 uM measured after 42 hrs by Annexin-V/propidium iodide staining based flow cytometry analysis relative to control; type: cell-based; conditions: l02, 42 h
[31] = molecular target: DNA topoisomerase 2-alpha (Homo sapiens) (UniProt P11388); test: Inhibition of human topoisomerase-2alpha mediated decatenation at 50 uM using kinetoplast DNA as substrate after 30 mins in presence of ATP by ethidium bromide staining-based UV imaging analysis relative to control
[32] = tested on: L02; test: Genotoxicity in human HL7702 cells assessed as induction of DNA damage at 50 uM after 24 hrs in combination of teniposide by alkaline comet assay; type: toxicity, cell-based; conditions: l02, 24 h
[33] = molecular target: T1, DNA topoisomerase II; test: Poison activity at topoisomerase-2 in human HL7702 cell lysate assessed as reduction in topoisomerase-2 band depletion at 50 uM after 3 hrs by Western blot analysis; type: ADME, subcellular
[34] = tested on: HMEC; test: Cytotoxicity against human HMEC cells assessed as inhibition of cell proliferation measured after 48 hrs by MTT assay relative to teniposide; type: cell-based
[35] = Acute toxicity in C57BL6 mouse assessed as effect on body weight at 100 mg/kg, ip administered for 20 days; type: organism-based; conditions: in vivo, 480 h
[36] = tested on: A549; test: Anticancer activity against human A549 cells assessed as inhibition of cell proliferation measured after 48 hrs by MTT assay; type: functional, cell-based; conditions: A549, 48 h
[37] = tested on: HepG2; test: Induction of apoptosis in human HepG2 cells assessed as apoptotic cells at 10 uM measured after 42 hrs by Annexin-V/propidium iodide staining based flow cytometry analysis relative to control; type: functional
[38] = tested on: L02; test: Cell cycle arrest in human HL7702 cells assessed as accumulation at G2/M phase at 5 uM after 30 hrs by propidium staining based flow cytometry analysis relative to control; conditions: l02, 30 h
[39] = Acute toxicity in C57BL6 mouse assessed as effect on kidney at 30 mg/kg, ip administered for 20 days and measured after 20 days by hematoxylin and eosin staining based assay; type: organism-based; conditions: in vivo, 480 h
[40] = tested on: HepG2; test: Cell cycle arrest in human HepG2 cells assessed as accumulation at G2/M phase at 5 uM after 24 hrs by propidium staining based flow cytometry analysis relative to control; type: functional
[41] = tested on: HepG2; test: Cell cycle arrest in human HepG2 cells assessed as accumulation at G2/M phase at 20 uM after 36 hrs by propidium staining based flow cytometry analysis relative to control; type: functional
[42] = Acute toxicity in C57BL6 mouse assessed as lethality at 100 mg/kg, ip administered for 4 days; type: organism-based; conditions: in vivo, 96 h
[43] = tested on: L02; test: Genotoxicity in human HL7702 cells assessed as induction of DNA damage at 50 uM after 24 hrs by alkaline comet assay; type: toxicity, cell-based; conditions: l02, 24 h
[44] = tested on: L02; test: Cell cycle arrest in human HL7702 cells assessed as accumulation at G2/M phase at 5 uM after 30 hrs by propidium staining based flow cytometry analysis; conditions: l02, 30 h
[45] = tested on: HepG2; test: Induction of apoptosis in human HepG2 cells assessed as apoptotic cells at 20 uM measured after 42 hrs by Annexin-V/propidium iodide staining based flow cytometry analysis relative to control; type: functional
[46] = tested on: L02; test: Cell cycle arrest in human HL7702 cells assessed as accumulation at G2/M phase at 50 uM after 42 hrs by propidium staining based flow cytometry analysis relative to control; conditions: l02, 42 h

Row | SMILES | LD50 at 480 h [1] | Activity [2] | IC50 [3] | Activity [7] | Activity [9] | ED50 [10] | IC50 [11] | inhibition [12] | inhibition in vivo at 30 mg/kg [13] | Activity [14] | IC50 [16] | IC50 [17] | IC50 [18] | IC50 [19] | Activity [20] | Activity [21] | IC50 [24] | IC50 [25] | Activity [30] | IC50 [36] | other results
1 | COc1cc([C@@H]2c3cc4c(cc3[C@@H](O[C@@H]3O[C@@H]5CO[C@@H](c6cccs6)O[C@H]5[C@H](OC(=O)CSc5nc6cc(F)ccc6s5)[C@H]3NC(=O)CSc3nc5cc(F)ccc5s3)[C@H]3COC(=O)[C@H]23)OCO4)cc(OC)c1O | 208 mg/kg | 7.2% | 122 µM | 446.35 mm3 | Toxic | 32.6 mg/kg | 122 µM | Active | 73% | Active | 10.8 µM | 121 µM | 116.5 µM | 10.3 µM | Non-Toxic | Non-Toxic | 152 µM | 120 µM | 30% | 12.6 µM | Activity [4]: 78%; inhibition [5]: Dose-dependent effect; Activity [6]: 30 - 55%; fold change (FC) [8]: 10; Activity [15]: Active; Activity [22]: Non-Toxic; Activity [23]: inactive; fold change (FC) [26]: 10; selectivity ratio at 20 days [27]: 6.39; Activity [28]: Non-Toxic; Activity [29]: Non-Toxic; inhibition [31]: 100%; Activity [32]: Toxic; Activity [33]: Not Active; fold change (FC) [34]: 10; Activity [35]: Non-Toxic; Activity [37]: 55%; Activity [38]: 40%; Activity [39]: Non-Toxic
2 | COc1cc([C@@H]2c3cc4c(cc3[C@@H](O[C@@H]3O[C@@H]5CO[C@@H](c6cccs6)O[C@H]5[C@H](O)[C@H]3O)[C@H]3COC(=O)[C@H]23)OCO4)cc(OC)c1O [TENIPOSIDE] | 46.1 mg/kg | 98.3% | 12.2 µM | 259.15 mm3 | Toxic | 40.5 mg/kg | 12.4 µM | Active | 48% | inactive | 11.1 µM | 11.5 µM | 62.7 µM | 4.3 µM | Toxic | Toxic | 14.9 µM | 22.3 µM | 88% | 8.2 µM | Activity [40]: >20%; Activity [41]: 86%; Activity [42]: Toxic; Activity [43]: Toxic; Activity [44]: Toxic; Activity [45]: 71%; Activity [46]: 84%
